Experiments:
[1] = molecular target: T1, purified maxi-K channel from bovine tracheal smooth muscle (Bos taurus, UniProt Q28067+Q28204); assay: [125I]ChTX binding to purified maxi-K channel (ChTX receptor); conditions: for inhibition of 125I-ChTX binding to the purified maxi-K channel: in a manner similar to native tissue channels
T1 construct: Purified sarcolemmal membrane vesicles derived from bovine tracheal smooth muscle; from tissue; host or cells: bovine tracheal smooth muscle sarcolemmal membranes
T1 sequence (Q28204 whole entry): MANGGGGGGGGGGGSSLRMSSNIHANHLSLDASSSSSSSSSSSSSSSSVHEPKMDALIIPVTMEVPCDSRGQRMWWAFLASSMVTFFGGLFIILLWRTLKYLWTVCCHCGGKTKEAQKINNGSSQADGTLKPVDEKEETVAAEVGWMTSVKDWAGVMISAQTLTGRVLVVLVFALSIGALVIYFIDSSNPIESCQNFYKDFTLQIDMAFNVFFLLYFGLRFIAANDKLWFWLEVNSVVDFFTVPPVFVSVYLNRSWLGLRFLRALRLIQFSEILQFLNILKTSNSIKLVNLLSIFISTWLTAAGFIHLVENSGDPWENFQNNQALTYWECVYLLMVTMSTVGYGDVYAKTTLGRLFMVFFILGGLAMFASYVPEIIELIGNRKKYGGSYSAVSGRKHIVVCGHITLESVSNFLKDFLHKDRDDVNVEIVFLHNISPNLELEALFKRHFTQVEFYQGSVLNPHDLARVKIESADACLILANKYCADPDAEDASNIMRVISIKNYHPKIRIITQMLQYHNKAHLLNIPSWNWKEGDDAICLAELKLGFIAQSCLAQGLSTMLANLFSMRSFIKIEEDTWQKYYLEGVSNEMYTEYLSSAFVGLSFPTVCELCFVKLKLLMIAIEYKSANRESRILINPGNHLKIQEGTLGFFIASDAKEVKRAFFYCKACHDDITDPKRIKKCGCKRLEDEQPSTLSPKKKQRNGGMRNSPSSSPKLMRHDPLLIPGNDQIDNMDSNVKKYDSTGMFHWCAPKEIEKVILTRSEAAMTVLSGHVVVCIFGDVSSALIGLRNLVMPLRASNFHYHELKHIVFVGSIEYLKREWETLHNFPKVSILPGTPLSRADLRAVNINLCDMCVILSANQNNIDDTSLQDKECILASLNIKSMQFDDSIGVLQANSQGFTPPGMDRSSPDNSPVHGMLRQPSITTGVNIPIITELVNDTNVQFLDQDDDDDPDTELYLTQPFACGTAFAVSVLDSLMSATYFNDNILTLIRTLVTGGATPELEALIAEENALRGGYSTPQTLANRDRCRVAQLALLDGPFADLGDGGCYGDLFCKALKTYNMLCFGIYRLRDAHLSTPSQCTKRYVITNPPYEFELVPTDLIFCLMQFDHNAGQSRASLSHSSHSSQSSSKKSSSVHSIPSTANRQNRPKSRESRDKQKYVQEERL
T1 sequence (Q28067 2-191): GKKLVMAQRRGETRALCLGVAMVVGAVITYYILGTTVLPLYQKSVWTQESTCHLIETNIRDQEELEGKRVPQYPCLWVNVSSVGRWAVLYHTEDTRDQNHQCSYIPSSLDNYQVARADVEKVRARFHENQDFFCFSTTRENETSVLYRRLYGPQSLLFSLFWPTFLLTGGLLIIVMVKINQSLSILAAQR
Method: Purified sarcolemmal membrane vesicles derived from bovine tracheal smooth muscle were prepared as previously described (Slaughter, R. S., Shevell, J. L., Felix, J. P., Garcia, M. L., and Kaczorowski, G. J., Biochemistry 28, 3995-4002 (1989)). The interaction of [^125 I]ChTX (New England Nuclear Corporation) with maxi-K channels in bovine tracheal sarcolemmal membrane vesicles was monitored as outlined previously (Vazquez, J., Feigenbaum, P., Katz, G., King, V. F., Reuben, J. P., Roy-Contancin, L., Slaughter, R. S., Kaczorowski, G. J., and Garcia, M. L., J. Biol. Chem. 264, 20902-20909 (1989)). Binding of radiolabeled toxin to solubilized channels was measured by incubating aliquots of solubilized material in 0.05% digitonin with [^125 I]ChTX as described (Garcia-Calvo, M., Vazquez, J., Smith, M., Kaczorowski, G. J., and Garcia, M. L. Biochemistry 30, 11157-11164 (1991)). At the end of the incubation period, protein was precipitated by addition of 10% (w/v) PEG (Mw~8000) in the presence of […] and the precipitate was immediately collected onto GF/C glass fiber filters (Whatman) that had been presoaked in 0.5% polyethylenimine. Nonspecific binding was determined in the presence of 10 nM ChTX (Peninsula Laboratories). For each experiment, triplicate assays were routinely performed, and the data were averaged. The standard error of the mean of these replicates was typically less than 3%.

[2] = molecular target: T2, 31,000 component (β subunit) of purified ChTX receptor (Bos taurus, UniProt Q28067+Q28204); assay: Covalent crosslinking of [125I]ChTX to purified receptor with disuccinimidyl suberate, SDS-PAGE; format: binding, bovine; conditions: in the presence of disuccinimidyl suberate
T2 construct: Purified sarcolemmal membrane vesicles derived from bovine tracheal smooth muscle; from tissue; host or cells: bovine tracheal smooth muscle sarcolemmal membranes
T2 sequence (Q28204 whole entry): as the sequence (Q28204 whole entry) above
T2 sequence (Q28067 2-191): as the sequence (Q28067 2-191) above
Method: Fractions from the last sucrose density gradient centrifugation containing 31-158 ng of protein were dialyzed against 10 mM Na-borate, pH 9.0, 0.05% Triton X-100 and then reacted with 3.5 mCi of [^125 I]Bolton-Hunter reagent (2200 Ci/mmol; New England Nuclear Corporation) for 15 min on ice. The reaction was quenched by addition of Tris-HCl, pH 7.4 to a final concentration of 100 mM. Covalent incorporation of [^125 I]ChTX into the purified receptor was accomplished with the bifunctional reagent, disuccinimidyl suberate as previously described for crosslinking ChTX to its receptor in membranes (Garcia-Calvo, M., Vazquez, J., Smith, M., Kaczorowski, G. J., and Garcia, M. L. (1991) Biochemistry 30, 11157-11164). Briefly, the purified receptor preparation was incubated with 130 pM [^125 I]ChTX in 10 mM NaCl, 10 mM Taps-NaOH, pH 9.0, 0.1% digitonin, in the absence or presence of unlabeled ChTX, for two hours at room temperature. The solution was then adjusted to 0.2M NaCl and disuccinimidyl suberate was added to a final concentration of 0.18 mM. After incubation at room temperature for 1 min, the reaction was stopped by addition of Tris-HCl, pH 7.4 to a final concentration of 200 mM. Samples were dialyzed against 10 mM Tris-HCl, pH 7.4, 0.05% digitonin, concentrated 10 fold, and subjected to SDS-PAGE. […]

[3] = system: maxi-K channel α subunit (mslo19) expressed in Xenopus oocytes; assay: Two-electrode voltage clamp of Xenopus oocytes injected with α subunit cRNA alone; format: cell-based, mouse; conditions: for block of outward potassium currents: no concentration given; for block of outward currents in whole-oocyte voltage clamp: toxin at 10 to 30 nM
maxi-K channel α subunit (mslo19) expressed in Xenopus oocytes, sequence (Q08460 66-642 limits assumed): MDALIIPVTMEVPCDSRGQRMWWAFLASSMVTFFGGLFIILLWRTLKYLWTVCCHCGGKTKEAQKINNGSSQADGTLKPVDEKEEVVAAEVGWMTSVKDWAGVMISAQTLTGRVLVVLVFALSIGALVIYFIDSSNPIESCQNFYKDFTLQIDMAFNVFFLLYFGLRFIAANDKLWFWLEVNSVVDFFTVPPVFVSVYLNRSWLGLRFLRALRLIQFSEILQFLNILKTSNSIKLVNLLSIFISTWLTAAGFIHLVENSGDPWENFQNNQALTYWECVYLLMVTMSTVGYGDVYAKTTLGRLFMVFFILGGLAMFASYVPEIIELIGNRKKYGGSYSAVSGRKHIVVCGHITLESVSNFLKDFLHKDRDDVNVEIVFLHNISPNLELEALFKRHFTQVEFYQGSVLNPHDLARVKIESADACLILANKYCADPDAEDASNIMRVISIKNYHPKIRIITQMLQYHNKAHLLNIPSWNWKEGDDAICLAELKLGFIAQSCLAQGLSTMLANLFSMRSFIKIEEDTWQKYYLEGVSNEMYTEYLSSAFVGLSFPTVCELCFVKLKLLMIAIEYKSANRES
Description: (§1) cDNAs encoding both the α and β subunits were used as templates for the production of cRNA. The α subunit cDNA was obtained from Leo Pallanck (Univ. of Wisconsin) and consisted of a full-length mouse brain cDNA (mslo19; GenBank Accession #U09383) in an RNA transcription vector, pGH. […] We therefore used standard techniques to modify the mslo19 cDNA, specifically by deleting the 5' non-coding sequence (bases 1 to 940), and replacing that sequence with a consensus eukaryotic translation initiation sequence: 5'-GCCGCCACC-3'. […] A fragment of the β subunit cDNA, including the entire open reading frame, was subcloned into a pGEM (Promega, inc.) vector for cRNA transcription. The cRNAs encoding both the α and β subunits were transcribed using the appropriate RNA polymerase as determined by the transcription vector (T7 for α, and SP6 for β) and capped in vitro using a kit (mCAP; Stratagene, inc), purified by size-exclusion chromatography using sepahadex G-50 spin columns (Bio-Rad, inc.), and analyzed for purity and length by agarose/formaldehyde gel electrophoresis according to established procedures. Following ethanol precipitation, cRNAs were resuspended in sterile, DEPC-treated water at a concentration of 0.1 to 1 μg/μl, and stored in 2 μl aliquots at -8° C.
Injection of mRNA or cRNA into Xenopus oocytes was done by a modification of established protocols (A. Coleman, Transcription and Translation: A Practical Approach. B. D. Hanes, S. J. Higgins, Eds., 1984); Y. Masu, et al., Nature 329, 836-838 (1987)). Oocytes were surgically removed from 0.17% tricaine anesthetized Xenopus laevis (Xenopus One). The excised ovarian lobes were teased apart with jeweler's forceps and then placed into OR-2 (82.5 mM NaCl, 2 mM KCl, 1 mM MgCl2, 5 mM HEPES, pH 7.4) containing 2 mg/ml collagenase β (Boehringer Mannhiem) for 2 hours at room temperature with a change of the buffer at 1 hour. Isolated oocytes were repeatedly washed in OR-2 until the supernatant remained clear. Stage 5 and 6 oocytes were selected and cultured overnight in supplemented OR-2 (OR-2 containing 1.8 mM CaCl2 and 0.5 mg/ml gentamycin. Oocytes were injected with 46 nl of RNA at a concentration of 0.1 to 1.0 mg/ml in H2 O. RNA was injected using a Nanoject automatic oocyte injector (Drummond Scientific) and injection needles were pulled from 3.5" Drummond capillaries using a Micropipette puller (Kopf Instruments).
Currents were recorded from Xenopus oocytes using two-electrode voltage-clamp methods to record currents from the entire oocyte and patch-clamp methods to record current from small patches of membrane excised from the oocytes. Recordings were done at room temperature and were performed 1 to 30 days after injection. […]

[4] = system: maxi-K channel α and β subunits coexpressed in Xenopus oocytes; assay: Two-electrode voltage clamp of Xenopus oocytes injected with α and β subunit cRNAs; format: cell-based, mouse α subunit, bovine β subunit; conditions: oocytes injected with both α and β subunit cRNAs
maxi-K channel α and β subunits coexpressed in Xenopus oocytes, sequence (Q08460 66-642 limits assumed): as above
maxi-K channel α and β subunits coexpressed in Xenopus oocytes, sequence (as listed by the source): as the sequence (Q28067 2-191) above
Description: as §1, with “Following ethanol precipitation, cRNAs were resuspended in sterile, DEPC-treated water at a concentration of 0.1 to 1 μg/μl, and stored in 2 μl aliquots at -8° C.” left out
(§2) Currents were recorded from Xenopus oocytes using two-electrode voltage-clamp methods to record currents from the entire oocyte and patch-clamp methods to record current from small patches of membrane excised from the oocytes. […]

[5] = molecular target: maxi-K channel α subunit (mslo19) expressed in Xenopus oocytes (Mus musculus, UniProt Q08460); assay: Patch clamp of excised inside-out patches from oocytes injected with α subunit cRNA alone; format: cell-based; conditions: 100-500 nM
maxi-K channel α subunit (mslo19) expressed in Xenopus oocytes (Mus musculus, UniProt Q08460), sequence (Q08460 whole entry): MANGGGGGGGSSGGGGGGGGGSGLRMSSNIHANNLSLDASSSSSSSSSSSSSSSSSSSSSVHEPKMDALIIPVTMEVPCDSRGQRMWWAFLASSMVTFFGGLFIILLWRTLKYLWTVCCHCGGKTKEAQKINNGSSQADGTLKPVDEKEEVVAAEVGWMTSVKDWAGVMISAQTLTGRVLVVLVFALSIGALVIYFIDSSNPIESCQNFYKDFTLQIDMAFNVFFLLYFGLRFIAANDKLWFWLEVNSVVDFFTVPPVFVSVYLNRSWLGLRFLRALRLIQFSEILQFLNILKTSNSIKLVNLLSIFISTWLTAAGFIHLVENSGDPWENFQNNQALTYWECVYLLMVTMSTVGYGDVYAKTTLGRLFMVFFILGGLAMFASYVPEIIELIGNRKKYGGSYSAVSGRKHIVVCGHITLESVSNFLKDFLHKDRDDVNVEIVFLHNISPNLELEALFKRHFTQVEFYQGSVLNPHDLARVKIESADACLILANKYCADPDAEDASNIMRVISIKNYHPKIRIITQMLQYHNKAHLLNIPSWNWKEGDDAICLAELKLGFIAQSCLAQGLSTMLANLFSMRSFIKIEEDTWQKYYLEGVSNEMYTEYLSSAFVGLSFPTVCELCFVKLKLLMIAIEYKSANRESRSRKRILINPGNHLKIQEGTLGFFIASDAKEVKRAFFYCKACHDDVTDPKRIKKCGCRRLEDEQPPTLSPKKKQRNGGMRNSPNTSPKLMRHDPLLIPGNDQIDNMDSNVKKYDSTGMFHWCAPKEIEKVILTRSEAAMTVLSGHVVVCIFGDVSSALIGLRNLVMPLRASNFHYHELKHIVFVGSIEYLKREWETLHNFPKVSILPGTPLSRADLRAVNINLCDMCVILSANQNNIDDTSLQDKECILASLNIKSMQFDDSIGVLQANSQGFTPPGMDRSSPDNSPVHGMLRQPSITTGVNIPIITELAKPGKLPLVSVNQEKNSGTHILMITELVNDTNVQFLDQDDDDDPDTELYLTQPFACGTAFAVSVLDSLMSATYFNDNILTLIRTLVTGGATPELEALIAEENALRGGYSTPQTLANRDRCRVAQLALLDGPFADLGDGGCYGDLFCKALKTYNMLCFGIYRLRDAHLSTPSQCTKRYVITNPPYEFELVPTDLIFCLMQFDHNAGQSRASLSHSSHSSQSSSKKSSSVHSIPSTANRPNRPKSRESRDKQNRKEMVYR
Description: as §1, with “Following ethanol precipitation, cRNAs were resuspended in sterile, DEPC-treated water at a concentration of 0.1 to 1 μg/μl, and stored in 2 μl aliquots at -8° C.” left out
as §2

[6] = molecular target: maxi-K channel α and β subunits coexpressed in Xenopus oocytes (UniProt Q08460+Q28067); assay: Patch clamp of excised inside-out patches from oocytes injected with α and β subunit cRNAs; format: cell-based, mouse α subunit, bovine β subunit; conditions: both subunits; 100-300 nM applied to the intracellular face of the channel
maxi-K channel α and β subunits coexpressed in Xenopus oocytes (UniProt Q08460+Q28067), sequence (Q08460 whole entry): as above
maxi-K channel α and β subunits coexpressed in Xenopus oocytes (UniProt Q08460+Q28067), sequence (Q28067 whole entry): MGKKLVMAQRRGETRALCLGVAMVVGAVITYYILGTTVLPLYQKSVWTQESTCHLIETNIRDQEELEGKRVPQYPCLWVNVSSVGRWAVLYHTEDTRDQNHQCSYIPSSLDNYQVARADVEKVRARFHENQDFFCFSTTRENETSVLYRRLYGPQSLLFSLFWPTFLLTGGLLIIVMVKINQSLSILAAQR
Description: as §1, with “Following ethanol precipitation, cRNAs were resuspended in sterile, DEPC-treated water at a concentration of 0.1 to 1 μg/μl, and stored in 2 μl aliquots at -8° C.” left out
as §2

[Ba] [barium]
inhibition of 125I-ChTX binding to the purified maxi-K channel [1]: inhibited

[Cs] [cesium]
inhibition of 125I-ChTX binding to the purified maxi-K channel [1]: inhibited

[K+] [potassium]
inhibition of 125I-ChTX binding to the purified maxi-K channel [1]: inhibited
effect on [125I]ChTX labeling of the 31,000 component [2]: abolished

^125 I-ChTX: radiolabeled toxin (New England Nuclear Corporation)
binding affinity for the purified channel compared with the native maxi-K channel ([1]; purified channel from bovine tracheal smooth muscle): similar

charybdotoxin [ChTX]
inhibition of 125I-ChTX binding to the purified maxi-K channel [1]: inhibited
block of outward potassium currents [3]: blocked
block of outward currents in whole-oocyte voltage clamp [3]: blocked
block of outward potassium currents [4]: blocked

dehydrosoyasaponin I [DHS-I]
effect on channel open probability / patch currents [5]: not increased
channel activation [6]: fully activated

iberiotoxin (QFTDVDCSVSKECWSVCKDLFGVDRGKCMGKKCRCYQ) [IbTX]
inhibition of 125I-ChTX binding to the purified maxi-K channel [1]: inhibited
effect on [125I]ChTX labeling of the 31,000 component [2]: abolished
block of outward potassium currents [3]: blocked
block of outward currents in whole-oocyte voltage clamp [3]: blocked
block of outward potassium currents [4]: blocked

limbatustoxin [LbTX]
inhibition of 125I-ChTX binding to the purified maxi-K channel [1]: inhibited
